Active and inactive are the calls of the source. The rule behind the calls is not given here.
How the values were obtained:
Mus musculus = test: Inhibition of vasculogenic-mimicry in BALB/c nude mouse xenografted with human NCI-H1299 cells assessed as reduction in pericyte coverage around CD31-positive endothelial blood vessels at 0.75 to 1.5 mg/kg, ip administered every other day for […] by immunofluorescence analysis; assay type: functional, organism-based; conditions: dose 0.75-1.5 mg/kg
NCI-H460 = test: Cytotoxicity against human NCI-H460 cells assessed as reduction in cell viability measured after 72 hrs by MTT assay; assay type: functional, cell-based; conditions: NCI-H460, 72 h

For COc1ccc(C[C@@H]2NC(=O)[C@@]34OC(=O)O/C=C/[C@@](C)(O)C(=O)[C@@H](C)C/C=C/[C@H]3[C@H](O)[C@](C)(O)[C@@H](C)[C@@H]24)cc1 [SCOPARASIN B], the inhibition (Mus musculus) was “Active” and the IC50 (NCI-H460) was 3.9 µM.

Reference: ChEMBL document CHEMBL5226385, “The Antiangiogenic and Antitumor Effects of Scoparasin B in Non-Small-Cell Lung Cancer” (J Nat Prod, 2023)
